{
  "source": "ChEMBL document CHEMBL4706768",
  "about": "“Discovery of Potent, Selective Triazolothiadiazole-Containing c-Met Inhibitors” (ACS Med Chem Lett, 2021)",
  "key": {"[1]": {"test": "Unbound intrinsic clearance in mouse hepatocytes assessed per million cells", "type": "ADME, cell-based, Hepatocyte"}, "[2]": {"biological_target": "Tyrosine-protein kinase Lck (Homo sapiens) (UniProt P06239)", "test": "Inhibition of recombinant human full-length N-terminal His6-tagged LCK expressed in baculovirus infected Sf21 insect cells at 2 uM relative to control"}, "[3]": {"biological_target": "Mitogen-activated protein kinase kinase kinase 5 (Homo sapiens) (UniProt Q99683)", "test": "Inhibition of recombinant N-terminal GST-tagged/C-terminal His6-tagged human ASK1 (649 to 946 residues) expressed in Escherichia coli at 2 uM using MBP as substrate relative to control"}, "[4]": {"biological_target": "Fibroblast growth factor receptor 3 (Homo sapiens) (UniProt P22607)", "test": "Inhibition of recombinant human N-terminal His6-tagged FGFR3 (447 to 761 residues) expressed in Sf21 insect cells at 2 uM using poly (Glu,Tyr) (4:1) as substrate relative to control"}, "[5]": {"biological_target": "Hepatocyte growth factor receptor (Homo sapiens, UniProt P08581)", "test": "Inhibition of c-Met (unknown origin) using poly Glu-Tyr as substrate preincubated for 10 mins followed by ATP addition by phosphoenolpyruvate/pyruvate kinase/lactate dehydrogenase coupled radiometric assay"}, "[6]": {"biological_target": "Vascular endothelial growth factor receptor 2 (Homo sapiens, UniProt P35968)", "test": "Inhibition of KDR (unknown origin)"}, "[7]": {"biological_target": "Serine/threonine-protein kinase N2 (Homo sapiens) (UniProt Q16513)", "sequence (Q16513 whole entry, looked up)": "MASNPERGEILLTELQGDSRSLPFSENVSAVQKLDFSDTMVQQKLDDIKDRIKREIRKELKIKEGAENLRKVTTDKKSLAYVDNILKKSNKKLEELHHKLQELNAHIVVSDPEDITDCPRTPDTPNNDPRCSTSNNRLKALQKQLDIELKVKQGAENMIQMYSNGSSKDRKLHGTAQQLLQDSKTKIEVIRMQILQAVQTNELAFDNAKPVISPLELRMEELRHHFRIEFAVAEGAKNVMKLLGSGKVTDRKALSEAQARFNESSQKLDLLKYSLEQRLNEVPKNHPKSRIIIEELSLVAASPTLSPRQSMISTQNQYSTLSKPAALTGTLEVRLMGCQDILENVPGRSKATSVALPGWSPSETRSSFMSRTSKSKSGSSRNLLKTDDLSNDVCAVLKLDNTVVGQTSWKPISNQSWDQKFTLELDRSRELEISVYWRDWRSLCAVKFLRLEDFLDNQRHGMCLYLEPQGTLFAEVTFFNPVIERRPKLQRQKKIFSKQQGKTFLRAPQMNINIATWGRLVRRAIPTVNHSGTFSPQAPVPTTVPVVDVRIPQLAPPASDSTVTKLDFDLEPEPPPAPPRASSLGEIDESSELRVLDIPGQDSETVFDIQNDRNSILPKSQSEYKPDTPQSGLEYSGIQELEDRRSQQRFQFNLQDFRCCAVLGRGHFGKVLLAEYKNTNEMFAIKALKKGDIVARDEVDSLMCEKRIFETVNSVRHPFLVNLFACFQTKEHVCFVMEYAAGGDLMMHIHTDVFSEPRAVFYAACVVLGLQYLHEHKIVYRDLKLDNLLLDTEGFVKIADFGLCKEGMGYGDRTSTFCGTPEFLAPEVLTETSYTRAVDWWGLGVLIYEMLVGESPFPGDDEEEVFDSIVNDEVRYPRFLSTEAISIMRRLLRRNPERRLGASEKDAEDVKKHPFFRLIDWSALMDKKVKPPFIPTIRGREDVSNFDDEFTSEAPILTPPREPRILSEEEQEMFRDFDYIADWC", "test": "Inhibition of PRK2 (unknown origin) at 2 uM relative to control"}, "[8]": {"biological_target": "Serine/threonine-protein kinase Sgk1 (Homo sapiens) (UniProt O00141)", "sequence (O00141 whole entry)": "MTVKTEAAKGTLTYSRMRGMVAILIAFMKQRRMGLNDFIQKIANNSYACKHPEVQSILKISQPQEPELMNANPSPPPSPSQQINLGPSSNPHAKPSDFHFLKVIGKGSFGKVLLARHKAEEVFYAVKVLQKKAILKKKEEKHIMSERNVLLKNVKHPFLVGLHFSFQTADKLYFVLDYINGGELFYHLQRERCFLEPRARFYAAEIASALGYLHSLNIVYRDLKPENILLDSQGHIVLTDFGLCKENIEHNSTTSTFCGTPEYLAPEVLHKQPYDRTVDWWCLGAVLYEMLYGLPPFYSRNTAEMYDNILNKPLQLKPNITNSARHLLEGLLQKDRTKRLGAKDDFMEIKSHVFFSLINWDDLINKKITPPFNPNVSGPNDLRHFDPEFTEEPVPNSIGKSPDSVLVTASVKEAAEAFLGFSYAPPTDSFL", "test": "Inhibition of SGK (unknown origin) at 2 uM relative to control"}, "[9]": {"biological_target": "Tyrosine-protein kinase receptor TYRO3 (Homo sapiens, UniProt Q06418)", "test": "Inhibition of SKY (unknown origin)"}, "[10]": {"biological_target": "Rho-associated protein kinase 2 (Homo sapiens) (UniProt O75116)", "test": "Inhibition of recombinant human N-terminal GST-tagged ROCK2 (5 to 554 residues) expressed in baculovirus infected Spodoptera frugiperda insect cells at 2 uM using KRRRLASLR as substrate relative to control"}, "[11]": {"test": "Unbound intrinsic clearance in human hepatocytes assessed per million cells", "type": "ADME, cell-based, Hepatocyte"}, "[12]": {"biological_target": "Tyrosine-protein kinase Lyn (Homo sapiens) (UniProt P07948)", "test": "Inhibition of recombinant human N-terminal His6-tagged full-length LYN expressed in Sf21 insect cells at 2 uM using Poly (Glu4-Tyr) (4:1) as substrate relative to control"}, "[13]": {"biological_target": "Epidermal growth factor receptor (Homo sapiens) (UniProt P00533)", "test": "Inhibition of recombinant human N-terminal GST-tagged EGFR (696 to end residues) expressed in baculovirus infected Sf21 insect cells at 2 uM using angiotensin II peptide as substrate relative to control"}, "[14]": {"biological_target": "Ribosomal protein S6 kinase alpha-5 (Homo sapiens) (UniProt O75582)", "sequence (O75582 whole entry, looked up)": "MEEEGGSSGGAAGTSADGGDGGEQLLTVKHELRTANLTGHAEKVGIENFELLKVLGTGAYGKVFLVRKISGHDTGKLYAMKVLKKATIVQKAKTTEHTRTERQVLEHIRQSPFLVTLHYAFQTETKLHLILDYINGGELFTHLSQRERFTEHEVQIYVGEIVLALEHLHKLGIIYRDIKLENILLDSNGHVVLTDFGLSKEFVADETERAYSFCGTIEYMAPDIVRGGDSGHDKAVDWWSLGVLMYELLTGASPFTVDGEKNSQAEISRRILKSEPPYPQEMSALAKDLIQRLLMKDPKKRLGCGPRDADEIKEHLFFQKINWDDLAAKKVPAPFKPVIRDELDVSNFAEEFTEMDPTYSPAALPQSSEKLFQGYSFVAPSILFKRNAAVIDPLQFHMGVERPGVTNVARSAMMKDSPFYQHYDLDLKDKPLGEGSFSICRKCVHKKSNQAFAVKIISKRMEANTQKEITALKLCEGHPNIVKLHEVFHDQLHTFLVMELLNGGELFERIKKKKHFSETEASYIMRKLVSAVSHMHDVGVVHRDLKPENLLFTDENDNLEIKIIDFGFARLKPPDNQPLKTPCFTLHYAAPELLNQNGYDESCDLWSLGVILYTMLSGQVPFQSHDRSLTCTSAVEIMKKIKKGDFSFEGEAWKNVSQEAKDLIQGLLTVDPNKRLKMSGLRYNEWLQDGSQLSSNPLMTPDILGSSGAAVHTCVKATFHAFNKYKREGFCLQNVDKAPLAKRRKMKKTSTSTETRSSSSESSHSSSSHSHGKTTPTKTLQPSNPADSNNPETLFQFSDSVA", "test": "Inhibition of recombinant human N-terminal His6-tagged MSK1 (2 to end residues) expressed in baculovirus infected Sf21 insect cells at 2 uM using Crosstide as substrate relative to control"}, "[15]": {"biological_target": "Serine/threonine-protein kinase Chk1 (Homo sapiens) (UniProt O14757)", "sequence (O14757 whole entry)": "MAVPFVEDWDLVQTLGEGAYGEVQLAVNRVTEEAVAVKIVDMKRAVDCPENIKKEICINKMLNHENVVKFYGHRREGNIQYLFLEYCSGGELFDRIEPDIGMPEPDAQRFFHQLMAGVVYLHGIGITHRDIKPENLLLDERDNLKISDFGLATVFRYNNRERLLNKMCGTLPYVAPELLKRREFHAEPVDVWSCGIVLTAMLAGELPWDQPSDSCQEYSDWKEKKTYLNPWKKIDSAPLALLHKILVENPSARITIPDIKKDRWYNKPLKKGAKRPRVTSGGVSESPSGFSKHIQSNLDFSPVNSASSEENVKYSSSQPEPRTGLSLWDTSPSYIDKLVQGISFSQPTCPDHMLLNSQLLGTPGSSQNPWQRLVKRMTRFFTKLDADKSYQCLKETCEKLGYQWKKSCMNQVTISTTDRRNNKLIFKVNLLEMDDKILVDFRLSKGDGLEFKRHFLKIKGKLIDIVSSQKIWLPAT", "test": "Inhibition of recombinant human N-terminal GST-tagged full-length CHK1 expressed in Sf21 insect cells at 2 uM using CHKtide as substrate relative to control"}, "[16]": {"biological_target": "Tyrosine-protein kinase ZAP-70 (Homo sapiens) (UniProt P43403)", "test": "Inhibition of recombinant human full-length C-terminal His6-tagged ZAP70 expressed in Sf21 insect cells at 2 uM using poly (Glu4-Tyr) (4:1) as substrate relative to control"}, "[17]": {"biological_target": "Dual specificity mitogen-activated protein kinase kinase 6 (Homo sapiens) (UniProt P52564)", "test": "Inhibition of recombinant human N-terminal MBP-tagged MKK6 (4 to end residues) expressed in Escherichia coli at 2 uM using p38alpha/SAPK2a.as substrate relative to control"}, "[18]": {"biological_target": "Calcium/calmodulin-dependent protein kinase type II subunit beta (Homo sapiens) (UniProt Q13554)", "test": "Inhibition of recombinant human N-terminal His6-tagged CAMK2beta (1 to 315 residues) expressed in baculovirus infected Sf21 insect cells at 2 uM using ZIPtide as substrate relative to control"}, "[19]": {"biological_target": "Receptor-type tyrosine-protein kinase FLT3 (Homo sapiens, UniProt P36888)", "test": "Inhibition of FLT3 (unknown origin)"}, "[20]": {"biological_target": "Protein kinase C beta type (Homo sapiens) (UniProt P05771)", "sequence (P05771 2-671 limits assumed)": "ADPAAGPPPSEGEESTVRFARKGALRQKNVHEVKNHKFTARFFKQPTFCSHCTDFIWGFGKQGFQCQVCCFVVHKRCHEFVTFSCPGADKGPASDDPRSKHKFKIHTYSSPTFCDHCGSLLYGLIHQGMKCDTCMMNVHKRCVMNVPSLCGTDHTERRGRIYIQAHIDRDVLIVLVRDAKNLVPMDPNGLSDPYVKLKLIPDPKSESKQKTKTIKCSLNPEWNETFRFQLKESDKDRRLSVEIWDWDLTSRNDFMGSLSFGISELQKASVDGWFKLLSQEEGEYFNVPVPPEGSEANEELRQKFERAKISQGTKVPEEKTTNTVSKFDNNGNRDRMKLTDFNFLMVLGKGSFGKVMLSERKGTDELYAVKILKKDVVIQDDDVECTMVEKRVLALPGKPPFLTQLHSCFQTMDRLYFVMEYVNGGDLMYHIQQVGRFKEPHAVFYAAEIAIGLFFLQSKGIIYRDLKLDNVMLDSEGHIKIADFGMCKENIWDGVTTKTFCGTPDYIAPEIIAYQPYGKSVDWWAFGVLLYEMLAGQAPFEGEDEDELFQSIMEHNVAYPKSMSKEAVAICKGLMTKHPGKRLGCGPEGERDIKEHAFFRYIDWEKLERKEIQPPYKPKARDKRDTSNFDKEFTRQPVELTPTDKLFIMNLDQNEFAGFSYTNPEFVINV", "test": "Inhibition of recombinant human N-terminal His6-tagged PKCbeta2 (2 to end residues) expressed in Sf21 insect cells at 2 uM using Histone H1 as substrate relative to control"}, "[21]": {"biological_target": "Insulin-like growth factor 1 receptor (Homo sapiens) (UniProt P08069)", "test": "Inhibition of recombinant human N-terminal His6-tagged IGF1R (959 to end residues) expressed in baculovirus infected Sf21 insect cells at 2 uM relative to control"}, "[22]": {"biological_target": "Tyrosine-protein kinase Fyn (Homo sapiens) (UniProt P06241)", "test": "Inhibition of recombinant human N-terminal His6-tagged full-length FYN expressed in baculovirus infected Sf21 insect cells at 2 uM using Src peptide as substrate relative to control"}, "[23]": {"biological_target": "Tyrosine-protein kinase JAK2 (Homo sapiens, UniProt O60674)", "test": "Inhibition of JAK2 (unknown origin)"}, "[24]": {"biological_target": "Cyclin-dependent kinase 5/CDK5 activator 1 (Homo sapiens) (UniProt Q00535+Q15078)", "test": "Inhibition of recombinant N-terminal His6-tagged human full-length CDK5/N-terminal GST-tagged full-length p35 expressed in baculovirus infected Sf21 insect cells at 2 uM using Histone H1 as substrate relative to control"}, "[25]": {"biological_target": "Receptor-interacting serine/threonine-protein kinase 2 (Homo sapiens) (UniProt O43353)", "test": "Inhibition of recombinant human N-terminal His6-tagged RIPK2 (1 to 299 residues) expressed in baculovirus infected Sf21 insect cells at 2 uM using MBP as substrate relative to control"}, "Homo sapiens": {"species": "Homo sapiens", "test": "Inhibition of CK1 (unknown origin) at 2 uM relative to control"}, "[26]": {"biological_target": "Serine/threonine-protein kinase Nek2 (Homo sapiens) (UniProt P51955)", "test": "Inhibition of recombinant human N-terminal His6-tagged NEK2 expressed in baculovirus infected Sf21 insect cells at 2 uM using MBP as substrate relative to control"}, "[27]": {"biological_target": "High affinity nerve growth factor receptor (Homo sapiens) (UniProt P04629)", "test": "Inhibition of recombinant human N-terminal His6-tagged TRKA (440 to end residues) expressed in baculovirus infected Sf21 insect cells at 2 uM using KKKSPGEYVNIEFG as substrate relative to control"}, "[28]": {"biological_target": "Tyrosine-protein kinase ABL1 (Homo sapiens) (UniProt P00519)", "sequence (P00519 whole entry)": "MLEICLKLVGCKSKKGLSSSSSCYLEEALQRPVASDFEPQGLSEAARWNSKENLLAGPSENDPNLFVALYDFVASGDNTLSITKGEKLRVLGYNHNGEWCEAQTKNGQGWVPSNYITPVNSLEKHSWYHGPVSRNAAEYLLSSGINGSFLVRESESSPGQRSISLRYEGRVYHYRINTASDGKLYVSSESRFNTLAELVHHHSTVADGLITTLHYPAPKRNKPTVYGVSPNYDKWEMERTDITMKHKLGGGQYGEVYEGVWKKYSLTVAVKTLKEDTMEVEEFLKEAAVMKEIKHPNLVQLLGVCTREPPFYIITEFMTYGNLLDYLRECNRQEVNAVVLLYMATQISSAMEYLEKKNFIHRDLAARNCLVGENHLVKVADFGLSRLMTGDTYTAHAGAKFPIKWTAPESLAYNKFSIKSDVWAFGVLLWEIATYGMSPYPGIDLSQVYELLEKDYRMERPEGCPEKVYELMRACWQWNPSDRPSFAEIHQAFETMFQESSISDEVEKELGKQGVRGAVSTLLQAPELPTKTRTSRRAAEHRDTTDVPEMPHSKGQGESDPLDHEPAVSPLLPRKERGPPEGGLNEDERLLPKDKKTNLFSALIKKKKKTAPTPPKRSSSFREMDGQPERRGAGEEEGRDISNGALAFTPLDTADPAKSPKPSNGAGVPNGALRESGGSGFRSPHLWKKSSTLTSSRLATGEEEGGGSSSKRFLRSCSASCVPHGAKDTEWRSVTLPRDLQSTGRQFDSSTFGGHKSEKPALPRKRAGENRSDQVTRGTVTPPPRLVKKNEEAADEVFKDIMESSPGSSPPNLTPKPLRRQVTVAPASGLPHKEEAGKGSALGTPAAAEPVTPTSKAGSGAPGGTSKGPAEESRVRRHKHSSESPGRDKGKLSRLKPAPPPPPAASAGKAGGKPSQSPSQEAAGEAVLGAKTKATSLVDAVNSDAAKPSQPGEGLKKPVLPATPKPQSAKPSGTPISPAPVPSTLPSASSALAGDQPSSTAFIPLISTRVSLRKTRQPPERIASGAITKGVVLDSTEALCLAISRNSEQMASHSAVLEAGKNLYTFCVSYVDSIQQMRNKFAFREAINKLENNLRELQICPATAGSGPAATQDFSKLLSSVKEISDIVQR", "test": "Inhibition of recombinant N-terminal His6-tagged human ABL (27 to end residues) expressed in baculovirus infected Sf21 insect cells at 2 uM using Abltide as substrate relative to control"}, "[29]": {"biological_target": "MAP kinase-activated protein kinase 5 (Homo sapiens) (UniProt Q8IW41)", "sequence (Q8IW41 whole entry)": "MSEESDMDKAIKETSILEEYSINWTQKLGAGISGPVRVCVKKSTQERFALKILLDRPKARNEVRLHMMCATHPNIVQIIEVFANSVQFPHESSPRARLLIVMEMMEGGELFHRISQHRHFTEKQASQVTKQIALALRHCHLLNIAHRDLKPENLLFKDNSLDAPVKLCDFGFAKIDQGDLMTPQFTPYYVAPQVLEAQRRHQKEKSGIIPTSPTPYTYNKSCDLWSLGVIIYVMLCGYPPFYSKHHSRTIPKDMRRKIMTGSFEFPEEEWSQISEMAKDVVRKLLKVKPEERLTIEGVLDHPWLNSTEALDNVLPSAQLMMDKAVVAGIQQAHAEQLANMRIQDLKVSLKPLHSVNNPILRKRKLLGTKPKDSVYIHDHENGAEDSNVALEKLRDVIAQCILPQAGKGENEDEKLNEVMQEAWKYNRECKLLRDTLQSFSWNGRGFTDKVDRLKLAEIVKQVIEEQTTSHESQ", "test": "Inhibition of recombinant human N-terminal His6-tagged full-length PRAK expressed in baculovirus infected Sf21 insect cells at 2 uM using PRAK substrate peptide relative to control"}},
  "data": [
    {"smiles": "C[C@@H](c1ccc2ncccc2c1)c1nnc2sc(-c3cnn(C)c3)nn12", "values": [
      {"measurement": "CL free", "setting": "[1]", "value": 7.2, "unit": "µL/min"},
      {"measurement": "inhibition", "setting": "[2]", "value": "< 50", "unit": "%"},
      {"measurement": "inhibition", "setting": "[3]", "value": "< 50", "unit": "%"},
      {"measurement": "inhibition", "setting": "[4]", "value": "< 50", "unit": "%"},
      {"measurement": "Ki", "setting": "[5]", "value": 0.02, "unit": "µM"},
      {"measurement": "Ki", "setting": "[6]", "value": "> 4", "unit": "µM"},
      {"measurement": "inhibition", "setting": "[7]", "value": "< 50", "unit": "%"},
      {"measurement": "inhibition", "setting": "[8]", "value": "< 50", "unit": "%"},
      {"measurement": "Ki", "setting": "[9]", "value": "> 4", "unit": "µM"},
      {"measurement": "inhibition", "setting": "[10]", "value": "< 50", "unit": "%"},
      {"measurement": "CL free", "setting": "[11]", "value": 5.1, "unit": "µL/min"},
      {"measurement": "inhibition", "setting": "[12]", "value": "< 50", "unit": "%"},
      {"measurement": "inhibition", "setting": "[13]", "value": "< 50", "unit": "%"},
      {"measurement": "inhibition", "setting": "[14]", "value": "< 50", "unit": "%"},
      {"measurement": "inhibition", "setting": "[15]", "value": "< 50", "unit": "%"},
      {"measurement": "inhibition", "setting": "[16]", "value": "< 50", "unit": "%"},
      {"measurement": "inhibition", "setting": "[17]", "value": "< 50", "unit": "%"},
      {"measurement": "inhibition", "setting": "[18]", "value": "< 50", "unit": "%"},
      {"measurement": "Ki", "setting": "[19]", "value": "> 4", "unit": "µM"},
      {"measurement": "inhibition", "setting": "[20]", "value": "< 50", "unit": "%"},
      {"measurement": "inhibition", "setting": "[21]", "value": "< 50", "unit": "%"},
      {"measurement": "inhibition", "setting": "[22]", "value": "< 50", "unit": "%"},
      {"measurement": "Ki", "setting": "[23]", "value": "> 4", "unit": "µM"},
      {"measurement": "inhibition", "setting": "[24]", "value": "< 50", "unit": "%"},
      {"measurement": "inhibition", "setting": "[25]", "value": "< 50", "unit": "%"},
      {"measurement": "inhibition", "setting": "Homo sapiens", "value": "< 50", "unit": "%"},
      {"measurement": "inhibition", "setting": "[26]", "value": "< 50", "unit": "%"},
      {"measurement": "inhibition", "setting": "[27]", "value": "< 50", "unit": "%"},
      {"measurement": "inhibition", "setting": "[28]", "value": "< 50", "unit": "%"},
      {"measurement": "inhibition", "setting": "[29]", "value": "< 50", "unit": "%"}
    ]}
  ]
}
